Results taken from ChEMBL document CHEMBL3638868, “Nitrogenous-ring acylguanidine derivative” (2014).

Biological target: 5-hydroxytryptamine receptor 5A (Homo sapiens, UniProt P47898)
Experiment: Binding Inhibition Assay: A solution of the compound to be tested and 100 μM 5-CT (5-carboxamidetriptamine) in DMSO was added to a 96-well plate at 2 μl/well, suspended in an incubation buffer, and a membrane from HEK293 cells for forced expressions of a human 5-HT5A receptor prepared at 200 ug/ml was added at 100 μl/well. After incubation at room temperature for 15 minutes, a [3H]5-CT solution (2 nM [3H]5-CT, incubation buffer) was added thereto at 100 μl/well.Separately, 100 μl of the solution was distributed into a liquid scintillation vial, and 2 ml of Aquasol II (registered trademark) was added thereto, followed by stirring. Then, radioactivity was measured by a liquid scintillation counter. It was incubated at 37C. for 60 minutes. The reaction mixture was sucked into 96-well GF/C filter plate that had been pre-treated with 0.2% polyethyleneimine, and washed six times with an ice-cooled, 50 mM Tris (pH 7.5) buffer. The GF/C filter plate was dried.
Format: cell membranes

5-hydroxytryptamine receptor 5A, sequence (P47898 whole entry): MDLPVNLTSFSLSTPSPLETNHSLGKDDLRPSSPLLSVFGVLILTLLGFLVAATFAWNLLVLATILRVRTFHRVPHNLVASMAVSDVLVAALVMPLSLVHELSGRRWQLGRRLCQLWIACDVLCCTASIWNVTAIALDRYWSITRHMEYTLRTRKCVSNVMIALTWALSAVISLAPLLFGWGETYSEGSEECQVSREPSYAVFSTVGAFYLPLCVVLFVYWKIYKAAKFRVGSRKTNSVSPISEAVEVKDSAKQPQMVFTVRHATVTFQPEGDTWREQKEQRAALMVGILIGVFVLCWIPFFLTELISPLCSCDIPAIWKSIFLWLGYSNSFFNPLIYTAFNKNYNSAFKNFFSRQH

Ki: 4.6 nM
SMILES: NC(N)=NC(=O)c1ccc2c(C(F)F)cnc(-c3c(F)cccc3F)c2c1
